Activity calls are given as the source filed them. No cut-off for these calls is given here.

inhibition, viability and IC50 data for 14 compounds are collected here from ChEMBL document CHEMBL4196044, “Design, synthesis and ability of non-gold complexed substituted purine derivatives to inhibit LPS-induced inflammatory response” (Eur J Med Chem, 2018).

Data set [1] has as its system RAW264.7. The experiment in a line: Anti-inflammatory activity in mouse RAW264.7 cells assessed as inhibition of LPS-induced IL-1beta production at 10 uM pretreated for 2 hrs followed by LPS stimulation measured after over night incubation by ELISA relative to control. Type of data set: functional.
Data set [2] can be described thus: Cytotoxicity against human THP1 cells assessed as cell viability at 10 uM by CellTiter-Glo luminescent assay relative to control. Type of data set: cell-based. Particulars: THP-1 cells, read-out: Activity. In general terms: ATP-based viability assays read luminescence as a measure of living cells.
Data set [3] has as its system RAW264.7. The experiment in a line: Anti-inflammatory activity in mouse RAW264.7 cells assessed as inhibition of LPS-induced TNF-alpha production at 10 uM pretreated for 2 hrs followed by LPS stimulation measured after over night incubation by ELISA relative to control. Type of data set: functional. For orientation: An ELISA detects its analyte on a solid surface through an enzyme-linked reagent.

Data set [4] deals with RAW264.7. The experiment in a line: Anti-inflammatory activity in mouse RAW264.7 cells assessed as inhibition of LPS-induced TNF-alpha production pretreated for 2 hrs followed by LPS stimulation measured after over night incubation by ELISA. Type of data set: functional, cell-based.
In data set [5] the test system is RAW264.7. The data set is described as follows: Inhibition of LPS-induced ERK phosphorylation in mouse RAW264.7 cells at 10 uM measured after 24 hrs by Western blot method. Type of data set: cell-based. (In western blotting, separated proteins are transferred to a membrane and probed.)
Data set [6] deals with Mus musculus. The experiment in a line: Anti-inflammatory activity in ICR mouse assessed as inhibition of carrageenan-induced hind paw edema volume at 10 mg/kg administered via gavage treated for 30 mins post carrageenan challenge measured after 3 to 5 hrs. Type of data set: functional, organism-based.
Data set [7] concerns the target T1, NF-kappa-B inhibitor alpha (Mus musculus) (UniProt Q9Z1E3).
T1 sequence (whole entry): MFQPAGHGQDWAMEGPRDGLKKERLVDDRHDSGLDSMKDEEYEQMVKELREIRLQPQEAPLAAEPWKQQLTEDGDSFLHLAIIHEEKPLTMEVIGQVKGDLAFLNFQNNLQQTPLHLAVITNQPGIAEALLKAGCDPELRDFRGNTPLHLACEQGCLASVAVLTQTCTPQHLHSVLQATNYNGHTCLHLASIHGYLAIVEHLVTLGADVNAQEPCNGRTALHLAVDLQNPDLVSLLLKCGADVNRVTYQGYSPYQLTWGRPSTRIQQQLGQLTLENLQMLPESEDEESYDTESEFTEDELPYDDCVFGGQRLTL
The data set is described as follows: Inhibition of LPS-induced IkappaBalpha phosphorylation in mouse RAW264.7 cells at 10 uM measured after 24 hrs by Western blot method. Type of data set: cell-based.

Data set [8] deals with RAW264.7. The data set is described as follows: Anti-inflammatory activity in mouse RAW264.7 cells assessed as inhibition of LPS-induced iNOS mRNA expression at 10 uM after 24 hrs by RT-qPCR analysis. Type of data set: functional, cell-based.
The subject of data set [9] is RAW264.7. The data set is described as follows: Inhibition of LPS-induced JNK phosphorylation in mouse RAW264.7 cells at 10 uM measured after 24 hrs by Western blot method. Type of data set: cell-based.
The test system of data set [10] is RAW264.7. The data set is described as follows: Anti-inflammatory activity in mouse RAW264.7 cells assessed as inhibition of LPS-induced COX-2 mRNA expression at 10 uM after 24 hrs by RT-qPCR analysis. Type of data set: functional, cell-based.
Data set [11] deals with Transcription factor p65 (Mus musculus) (UniProt Q04207). The data set is described as follows: Inhibition of LPS-induced NF-kappaB-p65 nuclear translocation in mouse RAW264.7 cells at 10 uM by DAPI staining-based immunofluorescence analysis. Type of data set: cell-based.
Data set [12] deals with RAW264.7. The experiment in a line: Anti-inflammatory activity in mouse RAW264.7 cells assessed as inhibition of LPS-induced PGE2 production pretreated for 2 hrs followed by LPS stimulation measured after over night incubation by ELISA. Type of data set: functional, cell-based.
For data set [13], the system named is RAW264.7. The data set is described as follows: Anti-inflammatory activity in mouse RAW264.7 cells assessed as inhibition of LPS-induced IL-1beta production pretreated for 2 hrs followed by LPS stimulation measured after over night incubation by ELISA. Type of data set: functional, cell-based.
Data set [14] concerns the target MAP kinase p38 (Mus musculus) (UniProt P47811+O08911+Q9WUI1+Q9Z1B7). The experiment in a line: Inhibition of LPS-induced p38 phosphorylation in mouse RAW264.7 cells at 10 uM measured after 24 hrs by Western blot method. Type of data set: cell-based.
Data set [15] relates to RAW264.7. The data set is described as follows: Anti-inflammatory activity in mouse RAW264.7 cells assessed as inhibition of LPS-induced IL-6 production pretreated for 2 hrs followed by LPS stimulation measured after over night incubation by ELISA. Type of data set: functional, cell-based.
In data set [16] the test system is Mus musculus. The experiment in a line: Anti-inflammatory activity in ICR mouse assessed as inhibition of carrageenan-induced hind paw edema volume at 10 mg/kg administered via gavage treated for 30 mins post carrageenan challenge measured after 2 to 3 hrs. Type of data set: functional, organism-based.
Data set [17] relates to RAW264.7. The data set is described as follows: Anti-inflammatory activity in mouse RAW264.7 cells assessed as inhibition of LPS-induced NO release pretreated for 2 hrs followed by LPS stimulation measured after 48 hrs […]. Type of data set: functional, cell-based.
In data set [18] the test system is Mus musculus. The experiment in a line: Anti-inflammatory activity in ICR mouse assessed as inhibition of carrageenan-induced hind paw edema volume at 10 mg/kg administered via gavage treated for 30 mins post carrageenan challenge measured after 2 to 5 hrs. Type of data set: functional, organism-based.

Transcription factor p65 (Mus musculus), sequence (Q04207 whole entry): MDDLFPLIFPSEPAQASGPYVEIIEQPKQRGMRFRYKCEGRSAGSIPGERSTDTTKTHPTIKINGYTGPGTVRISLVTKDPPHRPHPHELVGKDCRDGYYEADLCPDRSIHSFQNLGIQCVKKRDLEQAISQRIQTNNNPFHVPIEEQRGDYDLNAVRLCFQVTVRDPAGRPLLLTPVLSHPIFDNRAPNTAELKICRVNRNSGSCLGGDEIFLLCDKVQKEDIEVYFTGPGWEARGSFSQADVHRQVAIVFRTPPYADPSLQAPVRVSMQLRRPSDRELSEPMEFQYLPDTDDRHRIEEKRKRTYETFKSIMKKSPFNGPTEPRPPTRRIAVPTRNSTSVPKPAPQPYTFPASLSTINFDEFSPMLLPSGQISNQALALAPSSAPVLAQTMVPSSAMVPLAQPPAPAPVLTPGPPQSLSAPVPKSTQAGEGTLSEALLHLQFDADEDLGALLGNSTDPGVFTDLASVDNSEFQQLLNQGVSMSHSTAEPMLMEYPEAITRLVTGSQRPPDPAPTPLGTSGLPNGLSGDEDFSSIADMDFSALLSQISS

Take `Clc1ccc(Nc2ncnc3[nH]cnc23)cc1`: the inhibition (commonly the relative decrease from the control value, in per cent) at 10 µM worked out at 28.6% in the data set with RAW264.7 [1] and 16.1% in the data set on RAW264.7 [3]. Further, the viability at 10 µM in data set [2] stood at 92%.
Consider `c1coc(CNc2ncnc3[nH]cnc23)c1` [KINETIN], for which the inhibition at 10 µM was -19.5% in the data set with RAW264.7 [1] and 45.9% in the data set with RAW264.7 [3]. The viability at 10 µM in data set [2] was 107%.
Turning to `CC(=O)NS(=O)(=O)c1ccc(Nc2ncnc3[nH]cnc23)cc1`, the inhibition at 10 µM stood at 16.1% with RAW264.7 [1] and 12.4% with RAW264.7 [3]. Besides, the viability at 10 µM in data set [2] turned out to be 90.7%.
For the compound `Clc1ccccc1CNc1ncnc2nc[nH]c12`, in data set [2], the viability at 10 µM is 93.8%.
`Fc1cc(Nc2ncnc3[nH]cnc23)ccc1Cl`: the inhibition entry with RAW264.7 [4], in the data set with RAW264.7 [12], in the data set on RAW264.7 [13] and with RAW264.7 [15] was “Dose-dependent effect” each time. Further, the inhibition entry (with RAW264.7 [5]; with Mus musculus [6]; in data set [7]; with RAW264.7 [8]; with RAW264.7 [9]; in the data set on RAW264.7 [10]) was “Active” throughout. In addition, the inhibition result (in [11]; in data set [14]; with Mus musculus [16]) was “Active” throughout. The inhibition at 10 µM amounted to 84.2% in the data set with RAW264.7 [1] and 71% in the data set on RAW264.7 [3]. Also, the viability at 10 µM in data set [2] worked out at 99.3%. Moreover, in the data set with RAW264.7 [17], the half-inhibitory concentration (IC50) (usually the concentration that gives 50% inhibition) was found to be 4.43 µM.
`CCCn1cnc2c(NCc3ccccc3Cl)ncnc21`: the inhibition at 10 µM with RAW264.7 [1] came out at 14.1%; in the data set with RAW264.7 [3], 22.4%. The viability at 10 µM in data set [2] was found to be 103%.
Consider `Clc1ccccc1CNc1[nH]cnc2ncnc1-2`, for which the inhibition entry in the data set with RAW264.7 [4], with RAW264.7 [12], in the data set on RAW264.7 [13] and in the data set on RAW264.7 [15] was “Dose-dependent effect” each time. Moreover, the inhibition entry (with Mus musculus [18]; in the data set with RAW264.7 [5]; in data set [7]; with RAW264.7 [8]; in the data set on RAW264.7 [9]; with RAW264.7 [10]) was “Active” each time. Besides, the inhibition entry (in data set [11]; in [14]; in the data set on Mus musculus [16]) was “Active” in each case. Moreover, the inhibition at 10 µM with RAW264.7 [1] is 89%; in the data set on RAW264.7 [3], 86.2%. Also, the half-maximal inhibitory concentration (IC50) in the data set with RAW264.7 [17] stood at 3.54 µM.
Turning to `COc1ccc(Nc2ncnc3[nH]cnc23)cc1`, the results for the inhibition at 10 µM in the data set on RAW264.7 [1] and in the data set on RAW264.7 [3] were 7.29% and 25.6%, respectively. In addition, the viability at 10 µM in [2] came out at 100%.
As to `COc1cccc(Nc2ncnc3[nH]cnc23)c1`, the inhibition result with RAW264.7 [4], in the data set on RAW264.7 [12], in the data set on RAW264.7 [13] and in the data set on RAW264.7 [15] was “Dose-dependent effect” each time. The inhibition result (in the data set with RAW264.7 [5]; in data set [7]; in the data set on RAW264.7 [8]; in the data set with RAW264.7 [9]; with RAW264.7 [10]; in [11]) was “Active” each time. For the same compound, the inhibition entry (in data set [14]; in the data set on Mus musculus [16]) was “Active” throughout. Besides, the inhibition at 10 µM in the data set with RAW264.7 [1] was 88.9%; in the data set with RAW264.7 [3], 69.8%. Moreover, the viability at 10 µM in data set [2] was determined as 90.7%. Besides, the 50% inhibitory concentration (IC50) with RAW264.7 [17] was found to be 3.38 µM.
On to `Clc1cccc(Nc2ncnc3[nH]cnc23)c1`, for which the inhibition at 10 µM in the data set with RAW264.7 [1] was found to be 12.2%; with RAW264.7 [3], 18.5%. Also, the viability at 10 µM in data set [2] was determined as 91%.
Regarding `COc1cc(Cn2cnc3c(NCc4ccccc4Cl)ncnc32)cc(OC)c1`, the values for the inhibition at 10 µM in the data set with RAW264.7 [1] and in the data set with RAW264.7 [3] were 19.8% and 9.65%, respectively. Besides, the viability at 10 µM in data set [2] is 90.2%.
For `Oc1ccc(Nc2ncnc3[nH]cnc23)cc1`, in that order: 12.4%, 18.5% and 95.9%.
On to `c1nc2nc[nH]c(N3CCCC3)c-2n1`, for which the results for the inhibition at 10 µM in the data set with RAW264.7 [1] and with RAW264.7 [3] were -9.43% and 11.7%, respectively. Further, the viability at 10 µM in data set [2] is 91.1%.
On to `Fc1ccc(CNc2ncnc3nc[nH]c23)cc1`, for which the inhibition at 10 µM in the data set with RAW264.7 [1] amounted to 14.6%; in the data set on RAW264.7 [3], 22.4%. Moreover, the viability at 10 µM in data set [2] amounted to 92.9%.
